Patent US9675556B2, “Biodegradable stealth polymeric particles fabricated using the macromonomer approach by free radical dispersion polymerization” (Howard University, priority 2010, dated 2017)

Assays:
Test in all cases: CellTiter-Glo luminescent cell viability assay (in vitro cytotoxicity)
Type in all cases: cell-based
Settings in all cases: […] to 120 nM paclitaxel, 48, 72 and 96 hours
MCF-7 cells = tested on: MCF-7 cells
Method: (§1) The concentrations tested range from 2.5 nM to 120 nM. The experiment was carried out as follows: Cultured cells (MCF-7, SK-OV 3, and MDA-MB-231) were seeded in 96-well plates at a seeding density of 6000 cells/well/0.1 mL medium and allowed to attach for 24 hours. […] To allow direct comparison, the amount of paclitaxel-loaded nanoparticles containing the same amount of paclitaxel as the paclitaxel in solution was used. Control cells were treated with medium only, medium with 0.05% DMSO, and medium containing blank nanoparticles at the highest concentration tested.
(§2) Cell viability was assessed at 48-, 72- and 96-hours post treatment respectively. Briefly, at the predetermined time intervals the treatment was washed off and fresh medium added. An amount of the CellTiter®-Glo reagent equal to the amount of medium was added. The plate was mixed by shaking on an orbital shaker for 2 minutes to induce cell lysis and luminescence was measured after 10 minutes using the FLUOstar OPTIMA plate reader (BMG LABTECH). In this assay, the number of viable cells in culture is determined by quantification of the ATP present which is an index of the presence of metabolically active cells (CellTiter®-Glo Luminescent Cell Viability Assay Technical Bulletin, TB 288; Promega). Results are presented as percent viability normalized to controls and represent the mean±S.D. of 4 replicates per concentration tested, as shown in FIG. 9. The results were analyzed by using Student's t-test using the SPSS® statistical software. Differences were considered significant at p<0.05.

MDA-MB-231 cells = tested on: MDA-MB-231 cells
Method: as §1, §2

SK-OV-3 cells = tested on: SK-OV-3 cells
Method: as §1, §2

Measured: cell growth inhibition (cell viability)

CC(=O)O[C@H]1C(=O)[C@@]2(C)[C@H]([C@H](OC(=O)c3ccccc3)[C@]3(O)C[C@H](OC(=O)[C@H](O)[C@@H](NC(=O)c4ccccc4)c4ccccc4)C(C)=C1C3(C)C)[C@]1(OC(C)=O)CO[C@@H]1C[C@@H]2O [paclitaxel solution, paclitaxel]
inhibited cell growth: all assays above
